Biological target: T1, KRAS WT/SOS1 (Homo sapiens, UniProt Q07889)
T1 sequence (Q07889 1-1333): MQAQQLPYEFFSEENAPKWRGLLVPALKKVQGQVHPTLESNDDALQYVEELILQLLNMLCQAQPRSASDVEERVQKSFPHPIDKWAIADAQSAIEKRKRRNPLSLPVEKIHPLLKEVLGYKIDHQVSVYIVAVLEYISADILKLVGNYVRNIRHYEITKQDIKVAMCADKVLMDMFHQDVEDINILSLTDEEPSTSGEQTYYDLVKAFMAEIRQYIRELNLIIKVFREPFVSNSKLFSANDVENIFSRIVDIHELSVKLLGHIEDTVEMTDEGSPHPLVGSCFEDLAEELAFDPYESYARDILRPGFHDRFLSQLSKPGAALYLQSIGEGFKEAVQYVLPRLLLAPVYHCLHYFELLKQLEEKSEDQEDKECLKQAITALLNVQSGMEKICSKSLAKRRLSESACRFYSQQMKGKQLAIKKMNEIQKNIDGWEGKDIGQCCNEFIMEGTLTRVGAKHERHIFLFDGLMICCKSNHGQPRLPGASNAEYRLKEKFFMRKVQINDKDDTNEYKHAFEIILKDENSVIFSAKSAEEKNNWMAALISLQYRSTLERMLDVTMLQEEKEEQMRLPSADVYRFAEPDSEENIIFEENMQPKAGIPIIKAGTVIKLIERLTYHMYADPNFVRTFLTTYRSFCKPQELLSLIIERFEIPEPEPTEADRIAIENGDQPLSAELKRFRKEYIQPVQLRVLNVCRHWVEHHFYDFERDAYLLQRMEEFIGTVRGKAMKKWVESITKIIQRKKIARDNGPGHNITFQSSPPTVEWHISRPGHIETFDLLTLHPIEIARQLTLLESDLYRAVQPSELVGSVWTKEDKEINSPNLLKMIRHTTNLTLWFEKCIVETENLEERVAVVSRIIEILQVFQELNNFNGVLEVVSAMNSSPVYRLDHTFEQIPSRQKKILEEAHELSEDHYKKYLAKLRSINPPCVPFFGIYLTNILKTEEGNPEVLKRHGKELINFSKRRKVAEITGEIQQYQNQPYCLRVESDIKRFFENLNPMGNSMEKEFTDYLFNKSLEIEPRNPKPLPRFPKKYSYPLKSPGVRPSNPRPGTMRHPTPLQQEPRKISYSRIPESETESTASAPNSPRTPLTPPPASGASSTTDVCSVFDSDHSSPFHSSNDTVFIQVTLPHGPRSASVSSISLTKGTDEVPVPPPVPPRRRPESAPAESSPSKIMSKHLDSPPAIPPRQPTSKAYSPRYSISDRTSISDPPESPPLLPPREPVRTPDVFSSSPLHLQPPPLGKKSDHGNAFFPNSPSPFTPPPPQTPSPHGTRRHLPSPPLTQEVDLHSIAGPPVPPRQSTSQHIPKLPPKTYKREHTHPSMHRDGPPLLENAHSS
Experiment: HTRF KRAS WT/SOS1 PPI kit (Cisbio) screen for SOS1 inhibitors
Type: binding
Details: HTRF KRAS WT/SOS1 PPI assay, 10-point dilution series starting at 10 μM, 60 minutes incubation
Method: Compounds were screened using an HTRF KRAS WT/SOS1 PPI kit provided by Cis bio, according to the manufacturer's instructions, with the modifications described below. All reagents were allowed to equilibrate to room temperature and diluted to working stock in Binding Domain Detection buffer (BDD buffer). Stock solutions were prepared by adding 1 part Tag1-KRAS WT/GTP to 1 part Tag2-SOS1 and 1 part BDD. Separately, 1 part Anti-Tag1 XL665 antibody premix was added to Anti-Tag2 Tb cryptate antibody premix. BI-3406 (Selleck Chemicals) was used as a standard, solubilised to 10 mM in DMSO. Test compounds were also solubilised to 10 mM in DMSO. […] Per well, 6 uL of Tag1-KRAS WT/GTP premix, 4 ul Tag2-SOS1 premix and 10 μl of Anti-Tag1 XL665 and Anti-Tag2 Tb cryptate antibodies were then added using a E1-ClipTip™ Electronic Adjustable Multichannel Equalizer Pipette. After the final addition, the plate was covered and placed in the benchtop incubator set at 22° C. The reaction was incubated for 60 minutes at room temperature, prior to reading using a Pherastar FSX plate reader.

- IC50: < 100 nM
SMILES: COc1cc2nncc(N[C@H](C)c3cccc(C(F)F)c3F)c2cc1N1CC2CC(C1)O2 [Example-8, 6-(6-oxa-3-azabicyclo [3.1.1]heptan-3-yl)-N—((R)-1-(3-(difluoromethyl)-2-fluorophenyl)ethyl)-7-methoxycinnolin-4-amine]
